{
  "source": "ChEMBL document CHEMBL1154104",
  "about": "“S- and C-nucleosidoquinazoline as new nucleoside analogs with potential analgesic and anti-inflammatory activity” (Eur J Med Chem, 2009)",
  "key": {"Rattus norvegicus [1]": {"system": "Rattus norvegicus", "experiment": "Antiinflammatory activity against carrageenan-induced paw edema in Sprague-Dawley rat at 70 mg/kg, po pretreated 1 hr before carrageenan challenge measured after 4 hrs by plethysmometer", "type": "functional"}, "Mus musculus": {"system": "Mus musculus", "experiment": "Analgesic activity in Swiss albino mouse assessed as inhibition of acetic acid-induced writhing response at 70 mg/kg, po pretreated 1 hr before acetic acid challenge", "type": "functional"}, "Rattus norvegicus [2]": {"system": "Rattus norvegicus", "experiment": "Gastrointestinal toxicity in Wistar rat assessed as ulcerogenic induces at 200 mg/kg, po after 17 hrs", "type": "organism-based", "set-up": "dose 200 mg/kg, route oral", "conditions": "in vivo"}},
  "data": [
    {"smiles": "COc1ccc(C2NC(=S)NC3=C2C(=O)CC(C)(C)C3)cc1", "note": "(centres undefined)", "values": [
      {"measurement": "inhibition in vivo at 70 mg/kg", "setting": "Rattus norvegicus [1]", "result": 71, "unit": "%"}
    ]},
    {"smiles": "CC1(C)CC(=O)C2=C(C1)N=C(NN)NC2c1ccc(Cl)cc1", "note": "(centres undefined)", "values": [
      {"measurement": "inhibition in vivo at 70 mg/kg", "setting": "Rattus norvegicus [1]", "result": 71, "unit": "%"}
    ]},
    {"smiles": "CC1(C)CC(=O)C2=C(C1)N=C1NN=C([C@H](O)[C@@H](O)[C@@H](O)[C@H](O)CO)N1C2c1ccc(Cl)cc1", "note": "(some centres undefined)", "values": [
      {"measurement": "inhibition in vivo at 70 mg/kg", "setting": "Rattus norvegicus [1]", "result": 85, "unit": "%"},
      {"measurement": "inhibition in vivo at 70 mg/kg", "setting": "Mus musculus", "result": 59, "unit": "%"},
      {"measurement": "UI", "setting": "Rattus norvegicus [2]", "result": 0.8}
    ]},
    {"smiles": "CC1(C)CC(=O)C2=C(C1)N=C1NN=C([C@H](O)[C@@H](O)[C@H](O)CO)N1C2c1ccc(Cl)cc1", "note": "(some centres undefined)", "values": [
      {"measurement": "inhibition in vivo at 70 mg/kg", "setting": "Rattus norvegicus [1]", "result": 82, "unit": "%"},
      {"measurement": "inhibition in vivo at 70 mg/kg", "setting": "Mus musculus", "result": 71, "unit": "%"},
      {"measurement": "UI", "setting": "Rattus norvegicus [2]", "result": 0.6}
    ]},
    {"smiles": "CC1(C)CC(=O)C2=C(C1)N=C1NN=C([C@@H](O)[C@@H](O)[C@H](O)[C@H](O)CO)N1C2c1ccc(Cl)cc1", "note": "(some centres undefined)", "values": [
      {"measurement": "inhibition in vivo at 70 mg/kg", "setting": "Rattus norvegicus [1]", "result": 82, "unit": "%"},
      {"measurement": "inhibition in vivo at 70 mg/kg", "setting": "Mus musculus", "result": 57, "unit": "%"},
      {"measurement": "UI", "setting": "Rattus norvegicus [2]", "result": 0.6}
    ]},
    {"smiles": "CC1(C)CC(=O)C2=C(C1)NC(=S)NC2c1ccccc1", "note": "(centres undefined)", "values": [
      {"measurement": "inhibition in vivo at 70 mg/kg", "setting": "Rattus norvegicus [1]", "result": 50, "unit": "%"}
    ]},
    {"smiles": "CC1(C)CC(=O)C2=C(C1)N=C1NN=C([C@@H](O)[C@@H](O)[C@H](O)CO)N1C2c1ccc(Cl)cc1", "note": "(some centres undefined)", "values": [
      {"measurement": "inhibition in vivo at 70 mg/kg", "setting": "Rattus norvegicus [1]", "result": 82, "unit": "%"},
      {"measurement": "inhibition in vivo at 70 mg/kg", "setting": "Mus musculus", "result": 56.6, "unit": "%"},
      {"measurement": "UI", "setting": "Rattus norvegicus [2]", "result": 0.5}
    ]},
    {"smiles": "CC1(C)CC(=O)C2=C(C1)N=C1NN=C([C@@H](O)[C@H](O)[C@H](O)CO)N1C2c1ccc(Cl)cc1", "note": "(some centres undefined)", "values": [
      {"measurement": "inhibition in vivo at 70 mg/kg", "setting": "Rattus norvegicus [1]", "result": 84, "unit": "%"},
      {"measurement": "inhibition in vivo at 70 mg/kg", "setting": "Mus musculus", "result": 59.5, "unit": "%"},
      {"measurement": "UI", "setting": "Rattus norvegicus [2]", "result": 0.5}
    ]},
    {"smiles": "CC(=O)OC[C@H]1O[C@@H](SC2=NC3=C(C(=O)CC(C)(C)C3)C(c3ccc(Cl)cc3)N2)[C@H](OC(C)=O)[C@@H]1OC(C)=O", "note": "(some centres undefined)", "values": [
      {"measurement": "inhibition in vivo at 70 mg/kg", "setting": "Rattus norvegicus [1]", "result": 76, "unit": "%"}
    ]},
    {"smiles": "CC1(C)CC(=O)C2=C(C1)N=C1NN=C(c3ccc(Cl)cc3)N1C2c1ccc(Cl)cc1", "note": "(centres undefined)", "values": [
      {"measurement": "inhibition in vivo at 70 mg/kg", "setting": "Rattus norvegicus [1]", "result": 68, "unit": "%"}
    ]},
    {"smiles": "CC1(C)CC(=O)C2=C(C1)N=C1NN=C([C@H](O)[C@@H](O)[C@H](O)[C@H](O)CO)N1C2c1ccc(Cl)cc1", "note": "(some centres undefined)", "values": [
      {"measurement": "inhibition in vivo at 70 mg/kg", "setting": "Rattus norvegicus [1]", "result": 86, "unit": "%"},
      {"measurement": "inhibition in vivo at 70 mg/kg", "setting": "Mus musculus", "result": 73, "unit": "%"},
      {"measurement": "UI", "setting": "Rattus norvegicus [2]", "result": 0.5}
    ]},
    {"smiles": "CC(=O)OC[C@H]1O[C@@H](SC2=NC3=C(C(=O)CC(C)(C)C3)C(c3ccc(Cl)cc3)N2)[C@H](OC(C)=O)[C@@H](OC(C)=O)[C@H]1OC(C)=O", "note": "(some centres undefined)", "values": [
      {"measurement": "inhibition in vivo at 70 mg/kg", "setting": "Rattus norvegicus [1]", "result": 76, "unit": "%"}
    ]},
    {"smiles": "CC1(C)CC(=O)C2=C(C1)NC(=S)NC2c1ccc(Cl)cc1", "note": "(centres undefined)", "values": [
      {"measurement": "inhibition in vivo at 70 mg/kg", "setting": "Rattus norvegicus [1]", "result": 69, "unit": "%"}
    ]},
    {"smiles": "CC(=O)OC[C@H]1O[C@@H](SC2=NC3=C(C(=O)CC(C)(C)C3)C(c3ccc(Cl)cc3)N2)[C@H](OC(C)=O)[C@@H](OC(C)=O)[C@@H]1OC(C)=O", "note": "(some centres undefined)", "values": [
      {"measurement": "inhibition in vivo at 70 mg/kg", "setting": "Rattus norvegicus [1]", "result": 75, "unit": "%"}
    ]},
    {"smiles": "CC(C)Cc1ccc(C(C)C(=O)O)cc1", "note": "(centres undefined) [IBUPROFEN]", "values": [
      {"measurement": "inhibition in vivo at 70 mg/kg", "setting": "Rattus norvegicus [1]", "result": 92, "unit": "%"},
      {"measurement": "inhibition in vivo at 70 mg/kg", "setting": "Mus musculus", "result": 83.5, "unit": "%"},
      {"measurement": "UI", "setting": "Rattus norvegicus [2]", "result": 1.8}
    ]}
  ]
}
